Data as given in patent US8569379B2 (Teva Pharmaceutical Industries Ltd., priority 2010, dated 2013).
Read-outs that look alike come from different tables or passages of the source.

What was measured:
Wild type (WT) mice [1] = conditions: WT mice receiving rasagiline; group mean, n = 18
Description: (§1) The time periods that mice spent sniffing lemon and lime were compared. The testing parameters were percentage of time of sniffing lemon out of total time of sniffing and percentage of time of sniffing lime out of total time of sniffing.

Wild type (WT) mice [2] = tested on: Wild type (WT) mice
Description: (§2) The underlying principle was that if mice would spend less time sniffing the odor at T2 (second exposure to the odor) their short term olfactory memory is intact. The testing parameter was percentage of time of sniffing at T2, calculated as time of sniffing at T2 out of total time of sniffing at T1 (first exposure) & T2.

Wild type (WT) mice [3] = conditions: strong intensity
Description: (§3) The experiment was further subdivided into two levels of odor intensity:
(§4) Light intensity: two days of odor impregnation
(§5) Strong intensity: seven days of odor impregnation
(§6) The testing parameter was percentage of time of sniffing novel odor out of total time of sniffing.

[4] = tested on: alpha-synuclein over-expressing (mutants) mice (Thy1-aSyn)
Description: Transgenic mice overexpressing alpha-synuclein under the Thy1 promoter (Thy1-aSyn) have high levels of alpha-synuclein expression throughout the brain but no loss of nigrostriatal dopamine neurons up to 8 months. […] Overexpression of alpha-synuclein is sufficient to cause olfactory deficits in mice similar to that observed in patients with PD (2). […] In this experiment, lemon odor served as a familiar odor (F), and lime—as a novel odor (N) (FIG. 4A). Mice capable of discriminating between the odors will spend more time sniffing the new odor. The testing parameter was percentage of time of sniffing novel odor out of total time of sniffing.

[5] = tested on: transgenic mouse models for the study of olfactory loss
Description: (Lane et al., “Development of transgenic mouse models for the study of human olfactory dysfunction”, Am J. Rhinol., 2005, May-June; 19(3):229-35.)

Wild type (WT) mice [6] = conditions: WT mice receiving rasagiline; group mean, n = 9
Description: The objective was to determine whether the odor discrimination deficit was specific to the olfactory function (FIG. 7A).
The testing parameters was percentage of time exploring the novel object/odor out of total time of exploration.

[7] = tested on: alpha-synuclein over-expressing (mutants) mice (Thy1-aSyn); remark: listed apart in the source
Description: (§7) Transgenic mice overexpressing alpha-synuclein under the Thy1 promoter (Thy1-aSyn) have high levels of alpha-synuclein expression throughout the brain but no loss of nigrostriatal dopamine neurons up to 8 months. […] Overexpression of alpha-synuclein is sufficient to cause olfactory deficits in mice similar to that observed in patients with PD (2).
Odor detection threshold is the lowest concentration (dilution 10^−8; 10^−6; 10^−4 in the water) at which mice are able to detect a novel odor. Upon detection of a novel odor, mice will spend more time sniffing it. The detection threshold was measured as percentage of time sniffing novel odor out of total time of sniffing.

[8] = tested on: alpha-synuclein over-expressing (mutants) mice (Thy1-aSyn); remark: listed apart in the source
Description: as §7, §3, §4, §5, §6

Wild type (WT) mice [9] = conditions: WT mice receiving rasagiline, group mean, n = 18
Description: In this experiment, lemon odor served as a familiar odor (F), and lime—as a novel odor (N) (FIG. 4A). Mice capable of discriminating between the odors will spend more time sniffing the new odor. The testing parameter was percentage of time of sniffing novel odor out of total time of sniffing.

[10] = tested on: alpha-synuclein over-expressing (mutants) mice (Thy1-aSyn); conditions: α-syn mutants receiving rasagiline; group mean, n = 19
Description: as §7, §1

Wild type (WT) mice [11] = conditions: for Time of exploration: novel object; for Time of exploration / % Time exploring novel object: WT mice receiving rasagiline, individual mice, Mean row = group mean (n = 9); for % Time exploring novel object: out of total time of the trial
Description: (§8) The testing parameters were percentage of time exploring the novel object out of total time of the trial.

[12] = tested on: alpha-synuclein over-expressing (mutants) mice (Thy1-aSyn); remark: listed apart in the source
Description: as §7, §8

[13] = tested on: alpha-synuclein over-expressing (mutants) mice (Thy1-aSyn); remark: listed apart in the source
Description: as §7, with “(2). […] The objective was to determine whether the odor discrimination deficit was specific to the olfactory function (FIG. 7A). The testing parameters was percentage of time exploring the novel object/odor out of total time of exploration.” for “(2).”

[14] = tested on: alpha-synuclein over-expressing (mutants) mice (Thy1-aSyn); conditions: α-syn mutants; in particular at the 1.5 min interval
Description: as §7, §2

[15] = non-social odors, N = lime (novel), α-syn mutants receiving rasagiline, group mean, n = 20
[16] = strong social odors, α-syn mutants receiving rasagiline, group mean, n = 20
[17] = non-social odors, N = lime (novel)
[18] = α-syn mutants receiving rasagiline, group mean, n = 9

Question: What does the source list for `C#CCN[C@@H]1CCc2ccccc21` [Rasagiline, R(+)-N-propargyl-1-aminoindan]?
Answer: % Time sniffing Lemon (Wild type (WT) mice [1]): 52.9%; % Time sniffing Lime (Wild type (WT) mice [1]): 47.1%; Time of sniffing (s) Lemon (Wild type (WT) mice [1]): 25.9 s; Time of sniffing (s) Lime (Wild type (WT) mice [1]): 23.3 s; Time of sniffing (s) Total (Wild type (WT) mice [1]): 49.2 s; short-term olfactory memory compared to WT-water (Wild type (WT) mice [2]; ITI of 2 min): reduced short-term olfactory memory compared to WT-water; effect on short term olfactory memory (Wild type (WT) mice [2]; in particular at the 1.5 min interval): positive effect on short term olfactory memory; discrimination of strong social odor (Wild type (WT) mice [3]): improves discrimination of strong social odor; Total time sniffing ([4]; non-social odors lemon/lime, α-syn mutants receiving rasagiline, group mean, n = 20): 14.8; Time Sniffing F ([4]; non-social odors, F = lemon (familiar), α-syn mutants receiving rasagiline, group mean, n = 20): 3.7; % time sniffing N [4, 15]: 70.2%; Time Sniffing N [4, 15]: 11.2; discrimination of two close non-social odors ([4]; α-syn mutant mice, lemon (familiar) vs lime (novel)): improves discrimination of two close non-social odors; treating the symptoms of olfactory dysfunction ([5]; each of two transgenic mouse models): effective in treating the symptoms of olfactory dysfunction; functional decline ([5]; transgenic mouse models): effective in reducing the functional decline; rate of progression of olfactory dysfunction ([5]; transgenic mouse models): effective in reducing the rate of progression of olfactory dysfunction; % Time exploring novel object (Wild type (WT) mice [6]): 96.2%; Time of Exploration (s) Familiar object (Wild type (WT) mice [6]): 3.0 s; Time of Exploration (s) Novel object (Wild type (WT) mice [6]): 85.0 s; Time of Exploration (s) Total (Wild type (WT) mice [6]): 88.0 s; odor threshold (lowest odor dilution detected) ([7]; α-syn mutants with rasagiline, untreated mutants 10^−4, dilution in water): 10^6; odor detection ability ([7]; α-syn mutants, odor concentration 10^−6): improved the odor detection ability of α-syn mutants; Time Sniffing F [8, 16]: 3.1; Total time sniffing [8, 16]: 12.4; discrimination of light social odor ([8]; α-syn mutants, light intensity): improves discrimination of light social odor; discrimination of strong social odor ([8]; α-syn mutants, strong intensity): improves discrimination of strong social odor; Total time sniffing (Wild type (WT) mice [9]; non-social odors lemon/lime): 42.5; Time Sniffing F (Wild type (WT) mice [9]; non-social odors, F = lemon (familiar)): 11.9; % time sniffing N (Wild type (WT) mice [9]; [17]): 72.1%; Time Sniffing N (Wild type (WT) mice [9]; [17]): 30.6; % Time sniffing Lime [10]: 52.6%; Time of sniffing (s) Lemon [10]: 6.1 s; Time of sniffing (s) Lime [10]: 8.7 s; Time of sniffing (s) Total [10]: 14.9 s; effect on novel object exploration (Wild type (WT) mice [11]; WT mice): no effect on novel object exploration; Time of exploration (Wild type (WT) mice [11]; listed as Rasagilina): 100.0 s; Time of exploration (Wild type (WT) mice [11]; listed as Rasagilins): 115.1 s; % Time exploring novel object (Wild type (WT) mice [11]; listed as Rasagilina): 33.3%; % Time exploring novel object (Wild type (WT) mice [11]; listed as Rasagilins): 38.4%; Time of exploration ([12]; novel object, α-syn mutants receiving rasagiline, group mean, n = 11): 79.3 s; % Time exploring novel object ([12]; out of total time of the trial, α-syn mutants receiving rasagiline, group mean, n = 11): 26.4%; effect on novel object exploration ([12]; α-syn mutants): no effect on novel object exploration; novel object/odor discrimination ability ([13]; α-syn mutants): improves the discrimination ability of the mutants to substantially WT levels; % Time exploring novel object [13, 18]: 92.2%; Time of Exploration (s) Familiar object [13, 18]: 3.6 s; Time of Exploration (s) Novel object [13, 18]: 48.7 s; Time of Exploration (s) Total [13, 18]: 52.4 s; effect on short term olfactory memory [14]: positive effect on short term olfactory memory
